Legend:
colonocytes = experiment: Quantification of epithelial (host) DNA in feces by real-time PCR for the β-globin gene; format: in vivo, rats
Description: Food and demineralised drinking water were supplied ad libitum.
Fecal host DNA content was quantified using DNA extraction and real-time PCR, using rat-specific probe and primers for the β-globin gene. In short, DNA was isolated from 20 mg freeze-dried feces using the QIAamp DNA stool mini kit (Westburg, Leusden, The Netherlands) following the recommendations of the manufacturer for human DNA analysis. […] The standard DNA used for the quantification of the DNA in the feces was isolated from rat spleen, using the Wizard Genomic DNA purification kit (Promega Corporation, Madison, WI, USA). The real-time PCR was performed using the ABI prism 7700 Sequence Detection system (PE Applied Biosystems, Nieuwerkerk a/d IJssel, The Netherlands). Universal Taqman Master Mix and Taqman Exogenous Internal positive Control (IPC) Reagent (Vic ™ probe) were purchased from Applied Biosystems and the Taqman probe containing a 5' FAM labeled fluorescent reporter dye (6-carboxyfluorosein) and a 3' TAMRA quencher dye (6-carboxytetramethylrhodamine) was purchased from Proligo (Paris, France). PCR primers were synthesized by Amersham Pharmacia Biotech Custom DNA Synthesis Service (Roosendaal, The Netherlands). For amplification of host DNA 5 µl of the purified DNA (100-500 ng) was used in a volume of 50 µl, containing 1x Master Mix, 200 nM forward primer (5'-[…]-3'), 200 nM reverse primer (5'-[…]-3'), 100 nM probe (5'-[…]-3'), 1x IPC mix and 1x IPC DNA. The PCR protocol consisted of 2 min 50°C, 10 min 95°C and 40 cycles of 15 sec 95°C and 1 min 62°C.

[1] = test system: human erythrocyte suspension; experiment: Cytotoxicity of fecal water, potassium release from erythrocytes (erythrocyte bioassay); format: cell-based
Description: Fecal water was prepared by reconstituting a small amount of freeze-dried feces with double-distilled water to 20 % dry weight. After homogenizing, samples were incubated for 1 hour in a shaking water bath at 37°C, with mixing every 15 min, followed by centrifugation for 20 min at 13.500 g. The supernatants were collected and centrifuged again at 14.000 g for 2 min. The osmolarity (Osmomat 030-D, Gonotec, Berlin, Germany) of the fecal waters was determined. If osmolarity differed from 300 mOsmol/L, another portion of freeze-dried feces was reconstituted with double-distilled water, adjusting the percentage dry weight to obtain fecal water with an osmolarity of 300 mOsmol/L. The fecal waters were stored at -20°C until further analysis.
(§1) Cytotoxicity of fecal water was quantified by potassium release after incubation with a human erythrocyte suspension as described previously and validated earlier with intestinal epithelial cells. The potassium content of the erythrocytes was measured with an Inductive Coupled Plasma […] Emission Spectrophotometer (ICP-AES, Varian, Mulgrave, Australia) and the cytotoxicity of fecal water was calculated and expressed as a percentage of maximal lysis.

colonic epithelial cells = experiment: In vivo colonic epithelial cell proliferation, [methyl-3H]thymidine incorporation into DNA; set-up: species or system rats
Description: About eight-week-old, outbred male Wistar rats (Harlan Horst/WU, SPF) were housed individually in metabolic cages in a room with controlled temperature (± 20°C), relative humidity (50-60%) and a light/dark cycle (6 AM to 6 PM). Animals were acclimatized to housing conditions for 5 days before start of the experiment.
In the first study we tested whether spinach prevents the effect of dietary heme. […] During two weeks, four groups of eight rats were fed purified diets. The control group consumed a diet which contained per kg, 200 g casein, 532 g dextrose, 200 g fat (160 g palm fat and 40 g corn oil), 20 g cellulose and 20 mmol calcium phosphate (CaPO4·2H2O, Fluka Chemie Buchs, Switzerland). […]
After the experimental feeding period of 14 days, we quantified the colon epithelial cell proliferation as DNA-replication, using [methyl-^3H]thymidine incorporation into DNA. […] These homogenates were analyzed for ^3H-thymidine incorporation and for total DNA content. […] A sample (0.5 ml) of the hydrolysate was dissolved in 15 ml Aqua Luma (Lumac-LSC BV., Groningen, The Netherlands) and counted with corrections for quenching on a Beckman LS-7500 liquid scintillation counter. DNA content was determined using the diphenylamine reaction with calf thymus DNA as standard (Sigma) [24].

colon mucosa = experiment: Total DNA content of colon mucosa scrapings (diphenylamine reaction); format: in vivo, rats; conditions: spinach study
Source text: After the experimental feeding period of 14 days, we quantified the colon epithelial cell proliferation as DNA-replication, using [methyl-^3H]thymidine incorporation into DNA. We choose this biochemical method because it is the most rapid, specific and quantitative marker of cell replication in vivo. Moreover, we have shown earlier that DNA-replication highly correlates with faecal water cytotoxicity. This substantiates a cause-and-effect relationship that we want to address in the present study. Non-fasted rats were injected i.p. with [methyl-^3H]thymidine (specific activity 925 GBq / mmol; dose 3.7 MBq / kg body weight; Amersham International, Amersham, UK) in 154 mM NaCl. After 2 hours the rats were killed by CO2 inhalation. The colon was removed and opened longitudinally. Colonic contents were removed by rinsing with 154 mM KCl. […] These homogenates were analyzed for ^3H-thymidine incorporation and for total DNA content. […] A sample (0.5 ml) of the hydrolysate was dissolved in 15 ml Aqua Luma (Lumac-LSC BV., Groningen, The Netherlands) and counted with corrections for quenching on a Beckman LS-7500 liquid scintillation counter. DNA content was determined using the diphenylamine reaction with calf thymus DNA as standard (Sigma).

[2] = test system: human erythrocyte suspension; experiment: Cytotoxicity of size exclusion chromatography fractions of lipid extracts of pooled fecal water; format: cell-based; conditions: chlorophyll study, heme group: high-molecular weight components eluting around 6 min (Figure 6B)
Description: as §1
Pooled fecal water from the different treatment groups was first purified, by adding 560 µl water and 2.5 ml diethylether (ether) to 100 µl fecal water, and after vigorous mixing, centrifugation at 1500 g for 5 minutes. The ether phase containing chlorophyll was discarded and the procedure was repeated 2 times. The remaining 660 µl sample was acidified with 60 µl HCl (final HCl concentration 1 M) and further extracted with chloroform / methanol as described earlier. The lipid-containing chloroform phase was obtained after centrifugation (10 min, 1500 g) and evaporated under nitrogen. […] The data was processed and analyzed using Shimadzu software. […] The cytotoxicity of these fractions was determined as described above, after resolubilising the samples in 50 mM NaOH and adjusting to neutral pH and 300 mOsm/L with 3-[N-morpholino]-propanesulfonic acid (MOPS).

Substance	effect on heme-induced reduction of host DNA in the feces (colonocytes; chlorophyll study, supplemented to the heme diet (Figure 4))	inhibition of heme-induced increase of cytotoxicity of the fecal water ([1]; chlorophyll study, supplemented to the heme diet, fecal water of rats (Figure 5))	prevention of heme-induced epithelial hyperproliferation (colonic epithelial cells; chlorophyll study, added to heme diet, 1,2 mmol chlorophyll / kg diet, 14 days (Figure 3))	decrease of DNA content of the mucosa compared with the other groups (colon mucosa; 0.5 mmol heme / kg diet)	DNA content of the mucosa (colon mucosa; mean ± SEM, n=8 per group)	cytotoxicity of collected size exclusion chromatography fractions [2]	host DNA detected in the feces compared to the control diet (colonocytes; chlorophyll study, 0.5 mmol heme / kg diet, feces of days 11-14 (Figure 4))	exfoliation of colonocytes (rat DNA quantification from faeces) (colonocytes; summary of examples 1 and 2, dietary heme)	cytotoxicity of the fecal water compared with the control diet ([1]; chlorophyll study, 0.5 mmol heme / kg diet, fecal water of rats (Figure 5))	increase of cytotoxicity of fecal water compared with the control group ([1]; spinach study, fecal water of rats, 0.5 mmol heme / kg diet)	increase in rate of DNA-replication compared with the control group (colonic epithelial cells; spinach study, 0.5 mmol heme / kg diet, 14 days)
chlorophyll	totally abolished	completely	completely prevented	–	–	–	–	–	–	–	–
hemin [heme]	–	–	–	20%	4207 µg DNA / g scraping	very high	strong reduction	inhibited this exfoliation of colonocytes almost completely	increase	7 fold	50%

Reference: patent publication EP1522308A1, “Use of chlorophyll or analogues for the prevention of cytotoxic effects of dietary heme on the intestinal mucosa” (Stichting Top-Instituut Voedselwetenschappen, priority 2003, dated 2005)
